Test results as given in article PMC6073580, “DPIE [2-(1,2-diphenyl-1H-indol-3-yl)ethanamine] Augments Pro-Inflammatory Cytokine Production in IL-1β-Stimulated Primary Human Oral Cells” (International Journal of Molecular Sciences, 2018).

Target: T1, IL-1R1 (interleukin-1 receptor, type I) (Homo sapiens, UniProt P14778)
T1 construct: gene IL1R1
T1 sequence (P14778 18-569): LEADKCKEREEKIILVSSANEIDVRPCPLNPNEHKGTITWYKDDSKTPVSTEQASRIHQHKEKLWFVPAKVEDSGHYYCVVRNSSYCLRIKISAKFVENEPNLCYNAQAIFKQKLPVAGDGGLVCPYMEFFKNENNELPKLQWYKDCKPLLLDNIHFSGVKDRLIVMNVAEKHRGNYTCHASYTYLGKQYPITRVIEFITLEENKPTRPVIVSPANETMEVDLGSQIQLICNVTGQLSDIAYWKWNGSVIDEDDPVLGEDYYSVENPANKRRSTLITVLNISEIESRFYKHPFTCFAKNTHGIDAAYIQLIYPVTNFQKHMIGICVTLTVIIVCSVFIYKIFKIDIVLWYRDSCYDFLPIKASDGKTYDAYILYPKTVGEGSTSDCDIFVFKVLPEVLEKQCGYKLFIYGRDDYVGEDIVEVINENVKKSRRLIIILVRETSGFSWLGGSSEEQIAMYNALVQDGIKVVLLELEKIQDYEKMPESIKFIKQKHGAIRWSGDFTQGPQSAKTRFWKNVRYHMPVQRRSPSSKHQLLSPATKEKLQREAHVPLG
Assay: SPR (ProteOn XPR36), IL-1R1 immobilized by amine coupling, […] Langmuir kinetic fit; equilibrium analysis gave […]
Assay type: binding

A Kd of 316 µM was found for `NCCc1c(-c2ccccc2)n(-c2ccccc2)c2ccccc12` [DPIE, 2-(1,2-diphenyl-1H-indol-3-yl)ethanamine] in this work.
